Assay results: patent publication US9737502B2, “Calebin A for hepatic steatosis” (SAMI LABS LIMITED, priority 2011, dated 2017)

Legend:
[1] = system: leptin; assay: Estimation of leptin in adipocyte supernatant by ELISA; format: cell-based; details: human adipocytes
Procedure: (§1) 3T3-L1 cells approximately 60×10^4 cells are seeded for 48-72 hrs to get 70-80% confluence. After 48 hrs 200 μl of AIM (Adipogenesis induction medium) freshly prepared is added. 72 hrs later 200 μl APM (Adipogenesis progression medium) with the test compounds in different concentrations is added to the wells. The cells are incubated for 48 hrs in a humidified atmosphere (37° C.) of 5% CO2 and 95% air. The supernatant is collected and stored for the estimation of leptin, adiponectin, IL-6 and TNF-α by ELISA. Cells are fixed by adding 100 μl of 10% formalin and ORO staining is done. OD is read at 492 nm in microplate reader. The results are expressed as IC50 values using Graphpad prism software.
(§2) The percentage of inhibition of adipogenesis is calculated as follows, % inhibition=C−T/[…] Where C-absorbance of Oil red 0 in differentiating/undifferentiated cells T-absorbance of Oil Red-O in sample treated differentiating/undifferentiated cells. The estimation of leptin, adiponectin, IL-6 and TNF-α is done according to user's manual from R&D Systems.

[2] = system: IL-6; assay: Estimation of IL-6 in adipocyte supernatant by ELISA; format: cell-based; details: human adipocytes
Procedure: as §1, §2

[3] = system: TNF-α; assay: Serum TNF-α in LPS-injected mice after 6 days oral treatment (ELISA); format: in vivo, Swiss albino mice; details: graded doses, then LPS 1 mg/kg i.v., serum 90 min after LPS
Procedure: The present inventors also adduce study data on the ability of Calebin A to reduce expression of Extracellular TNF-α, IL-1 beta [FIG. 6] and IL-6 [FIG. 7] in serum from treated mice (in-vivo models). Swiss albino male mice aged 6-8 weeks were maintained at 22±2° C. under 12/12 h light dark cycle. Mice received oral treatment of test drugs at graded doses (w/v) for 6 days, followed by intravenous injection of 1 mg/kg of LPS according to the method described by Brieva A, Guerrero A, Alonso-Lebrero J L and Pivel J P. 2001. Immunoferon, a glycoconjugate of natural origin, inhibits LPS-induced TNF-α production and inflammatory responses. International Immunopharmacology 1, 1979-1987. Six mice were employed in each group and experiments were performed in triplicates. TNF-α, IL-1 beta and IL-6 production was evaluated by a commercial ELISA kits (R&D Systems) in serum from treated mice, 90 min after LPS injection. Rolipram at 30 mg/kg was used as standard drug.

With `COc1cc(/C=C/C(=O)COC(=O)/C=C/c2ccc(O)c(OC)c2)ccc1O` [Calebin A] the “percentage inhibition of leptin production” value ([1]; 0.5 μg/ml) was 34.92%, the “percentage inhibition of leptin production” value ([1]; 1.0 μg/ml) was 41.04% and the “percentage inhibition of leptin production” value ([1]; 2.0 μg/ml) was 39.48%. The “percentage inhibition of IL-6” value ([2]; 0.5 μg/ml) was 21.31%, the “percentage inhibition of IL-6” value ([2]; 1.0 μg/ml) was 32.37% and the “percentage inhibition of IL-6” value ([2]; 2.0 μg/ml) was 31.7%. For the same compound, the “expression of TNF-α in serum” value [3] was “effective in reducing”.
